{
  "source": "patent US20140194361A1",
  "about": "“Vault Agents for Treating Chronic Kidney Disease” (priority 2010, published 2014)",
  "key": {"integrin": {"test_system": "integrin", "assay": "experimentally verified RGD inhibitors blocking fibronectin adhesion to integrin", "source_text": "Preferably, the synthetic analog inhibitors should have higher affinity to the integrin than the RGD loop of fibronectin. […] These two cyclic peptides were also used as reference structures to construct new inhibitors.\nCombining the experimental results with the data obtained from our calculations we were able to predict the efficiency of the various inhibitors and to determine which structure is the most favorable fragment with regard to integrin binding energy."}, "[1]": {"test_system": "extracellular matrix and signaling proteins of DN", "assay": "expression of extracellular matrix and signaling proteins of DN in cells (immunoblotting)", "format": "cell-based", "conditions": "for expression of extracellular matrix and signaling proteins of DN: serum-starved 48 h, treated 48 h, vs RGE/CRGE peptides", "description": "Cells were serum-starved for 48 h and then untreated or treated with or without the unmodified RGD/RGE and modified CRGD/CRGE peptide for 48 h."}, "[2]": {"test_system": "type 2 diabetic db/db mice", "assay": "prevention of progression of early DN in type 2 diabetic db/db mice", "format": "in vivo", "source_text": "There was no change in blood pressure or plasma glucose in either the diabetic or non-diabetic animals.\nThere was no change in creatinine clearance in the cyclic-GRGESP-control peptide treated diabetic animals\nIn addition, glomerular volume measured by fractional volume of expansion by electron microscopy was normalized, p<0.05 after 12 weeks of treatment.\n(§1) We investigated the ability of cyclic GRGDSP vs. GRGESP in a pilot study to prevent accumulation of glomerular lesions in early DN in 20 week old diabetic type 2 db/db vs non-diabetic db/m and diabetic type 1 Ins2Akita+ vs. non-diabetic Ins2+/+ mice with GRGESP and […] and observed up to 52% reduction in albuminuria in the type 2 diabetic mice (FIGS. 1-2) and ˜70% reduction in albuminuria in the type 1 diabetic mice (FIG. 6)."}, "[3]": {"test_system": "type 1 diabetic Ins2Akita/+ mice", "assay": "prevention of progression of DN in type 1 diabetic Ins2Akita/+ mice", "format": "in vivo", "description": "as §1"}, "[4]": {"test_system": "aged type 2 diabetic db/db mice", "assay": "regression of established DN in aged type 2 diabetic db/db mice", "format": "in vivo"}, "[5]": {"conditions": "2400 μg/kg, after 4, 8 and 12 weeks of treatment"}, "[6]": {"conditions": "type 2 and type 1 diabetic mice, 400-2400 μg/kg"}},
  "note": "Entries after “also recorded” stand apart in the source; their conditions may differ. No end group written: not given here.",
  "data": [
    {"substance": "cyc-RGDSPCG", "values": [
      {"measurement": "efficiency as inhibitor (experimentally verified)", "setting": "integrin", "value": "efficient inhibitors"}
    ]},
    {"substance": "CGRGDSP (also: cyclic peptide, ring closure not given here) [cyclic GRGDSP peptide with an added cysteine linker (free cysteine residue)]", "values": [
      {"measurement": "integrin-mediated cellular signaling by TGF-β, AKT and STAT3", "setting": "[1]; kinetic studies and immunoblotting", "value": "inhibition"},
      {"measurement": "expression of extracellular matrix and signaling proteins of DN", "setting": "[1]", "value": "significantly reduced"}
    ]},
    {"substance": "cyc-RGDSPSG (cyclised or stapled)", "values": [
      {"measurement": "efficiency as inhibitor (experimentally verified)", "setting": "integrin", "value": "efficient inhibitors"}
    ]},
    {"substance": "GRGDSP [cyclic-GRGDSP]", "values": [
      {"measurement": "amelioration of albumin excretion rate", "setting": "[2]; [5]", "value": "up to 52%"},
      {"measurement": "glomerular extracellular matrix expansion (periodic acid Schiff staining)", "setting": "[2]; after 12 weeks of treatment", "value": "prevented glomerular extracellular matrix expansion"},
      {"measurement": "glomerular volume (fractional volume of expansion by electron microscopy)", "setting": "[2]; after 12 weeks of treatment", "value": "normalized"},
      {"measurement": "albumin excretion rate in control animals", "setting": "[2]; control type 2 diabetic animals, 2400 μg/kg", "value": "did not alter"},
      {"measurement": "albumin excretion rate", "setting": "[2]; db/db vs db/m mice, 400-2400 μg/kg, after 4 weeks of treatment, vs cyclic-GRGESP control", "value": "ameliorating albumin excretion rate in a dose dependent manner"},
      {"measurement": "DN signaling proteins by Western blot", "setting": "[2]; [6]", "value": "significant reduction"},
      {"measurement": "glomerular expression extracellular matrix by Periodic Acid Schiff and electron microscopy", "setting": "[2]; [6]", "value": "significant reduction"},
      {"measurement": "reduction in albuminuria", "setting": "[2]; type 2 diabetic mice, 400-2400 μg/kg", "value": "up to 52%"},
      {"measurement": "albuminuria measured as albumin-to-creatinine ratio", "setting": "[3]; [5]", "value": "ameliorated albuminuria"},
      {"measurement": "glomerular expression of extracellular matrix proteins (fibronectin, collagen I and collagen IV)", "setting": "[3]; after 12 weeks of treatment", "value": "reduced glomerular expression of extracellular matrix proteins"},
      {"measurement": "reduction in albuminuria", "setting": "[3]; type 1 diabetic mice, 400-2400 μg/kg", "value": "~70", "unit": "%"},
      {"measurement": "reduction in albuminuria", "setting": "[4]; 21-week-old db/db mice, 2400-4800 μg/kg, 4 weeks i.p.", "value": "up to 71%"},
      {"measurement": "expression of fibronectin, collagen I, collagen IV, TGF-β, ERK/MAPK and Nox4 (Western blot of kidney cortical tissues)", "setting": "[4]; 2400-4800 μg/kg, 4 weeks i.p.", "value": "reduced expression"},
      {"measurement": "glomerulosclerosis index (Periodic Schiff stained kidney section)", "setting": "[4]; 2400-4800 μg/kg, 4 weeks i.p.", "value": "significant reduction"},
      {"measurement": "mesangial expansion", "setting": "[4]; 2400-4800 μg/kg, 4 weeks i.p.", "value": "reduced mesangial expansion"},
      {"measurement": "reduction of albumin excretion rate", "setting": "[4]; 3600 and 4800 μg/kg, 4 weeks intraperitoneal, dose-dependent", "value": "up to 71%"},
      {"measurement": "glomerular extracellular matrix proteins (fibronectin, collagen I and collagen IV)", "setting": "[4]; 3600 and 4800 μg/kg, 4 weeks, dose-dependent", "value": "reduced glomerular extracellular matrix proteins"},
      {"measurement": "expression of known signaling molecules of DN", "setting": "[4]; 3600 and 4800 μg/kg, dose-dependent", "value": "reduced the expression"},
      {"measurement": "expression of extracellular matrix and signaling proteins of DN", "setting": "[1]", "value": "significantly reduced"}
    ]},
    {"substance": "cyc-RGDSPG", "values": [
      {"measurement": "efficiency as inhibitor (experimentally verified)", "setting": "integrin", "value": "successful candidate of inhibitors; also recorded: efficient inhibitors"}
    ]}
  ]
}
